# Active and inactive are the calls of the source. The rule behind the calls is not given here.
# What was measured:
# Mus musculus [1] = assay: Anticonvulsant activity in ip dosed CF1 albino mouse assessed as inhibition of maximal electroshock-induced seizures after 4 hrs; type: functional
# Mus musculus [2] = assay: Anticonvulsant activity in CF1 albino mouse assessed as protection against maximal electroshock-induced seizures at 30 mg/kg, ip after 1 hr; type: functional
# Mus musculus [3] = assay: Anticonvulsant activity in ip dosed CF1 albino mouse assessed as inhibition of maximal electroshock-induced seizures after 0.5 hrs; type: functional
# Mus musculus [4] = assay: Anticonvulsant activity in CF1 albino mouse assessed as protection against maximal electroshock-induced seizures at 30 mg/kg, po after 2 hrs; type: functional
# Mus musculus [5] = assay: Neurotoxicity in CF1 albino mouse assessed as occurance of tremors at 300 mg/kg, ip after 0.5 hrs by rotarod test; type: toxicity, organism-based; design: dose 300 mg/kg, route intraperitoneal; details: in vivo
# Mus musculus [6] = assay: Anticonvulsant activity in CF1 albino mouse assessed as protection against maximal electroshock-induced seizures at 30 mg/kg, ip after 2 hrs; type: functional
# Mus musculus [7] = assay: Anticonvulsant activity in CF1 albino mouse assessed as protection against maximal electroshock-induced seizures at 30 mg/kg, po after 0.5 hrs; type: functional
# Mus musculus [8] = assay: Neurotoxicity in CF1 albino mouse assessed as motor impairment at 30 mg/kg, ip after 0.25 hrs by rotarod test; type: toxicity, organism-based; design: dose 30 mg/kg, route intraperitoneal; details: in vivo
# Mus musculus [9] = assay: Anticonvulsant activity in CF1 albino mouse assessed as protection against maximal electroshock-induced seizures at 30 mg/kg, ip after 4 hrs; type: functional
# Mus musculus [10] = assay: Neurotoxicity in CF1 albino mouse assessed as motor impairment at 30 mg/kg, po after 0.5 hrs by rotarod test; type: toxicity, organism-based; design: dose 30 mg/kg, route oral; details: in vivo
# Mus musculus [11] = assay: Neurotoxicity in CF1 albino mouse assessed as motor impairment at 30 mg/kg, ip after 0.5 hrs by rotarod test; type: toxicity, organism-based; design: dose 30 mg/kg, route intraperitoneal; details: in vivo
# Mus musculus [12] = assay: Neurotoxicity in CF1 albino mouse assessed as motor impairment at 30 mg/kg, po after 2 hrs by rotarod test; type: toxicity, organism-based; design: dose 30 mg/kg, route oral; details: in vivo
# Mus musculus [13] = assay: Neurotoxicity in CF1 albino mouse assessed as death at 300 mg/kg, ip after 0.5 hrs by rotarod test; type: toxicity, organism-based; design: dose 300 mg/kg, route intraperitoneal; details: in vivo
# Mus musculus [14] = assay: Neurotoxicity in CF1 albino mouse assessed as motor impairment at 30 mg/kg, po after 0.25 hrs by rotarod test; type: toxicity, organism-based; design: dose 30 mg/kg, route oral; details: in vivo
# Mus musculus [15] = assay: Neurotoxicity in CF1 albino mouse assessed as motor impairment at 30 mg/kg, ip after 4 hrs by rotarod test; type: toxicity, organism-based; design: dose 30 mg/kg, route intraperitoneal; details: in vivo
# Mus musculus [16] = assay: Neurotoxicity in ip dosed CF1 albino mouse assessed as ability to maintain equilibrium for 1 min on […] after 0.5 hrs by rotarod test; type: toxicity, organism-based; details: in vivo
# Mus musculus [17] = assay: Anticonvulsant activity in CF1 albino mouse assessed as protection against maximal electroshock-induced seizures at 30 mg/kg, ip after 0.25 hrs; type: functional
# Mus musculus [18] = assay: Anticonvulsant activity in CF1 albino mouse assessed as protection against maximal electroshock-induced seizures at 30 mg/kg, po after 1 hr; type: functional
# Mus musculus [19] = assay: Neurotoxicity in CF1 albino mouse assessed as motor impairment at 30 mg/kg, po after 1 hr by rotarod test; type: toxicity, organism-based; design: dose 30 mg/kg, route oral; details: in vivo
# Mus musculus [20] = assay: Neurotoxicity in CF1 albino mouse assessed as ability to maintain equilibrium for 1 min on […] at 300 mg/kg, ip after 4 hrs by rotarod test; type: toxicity, organism-based; design: dose 300 mg/kg, route intraperitoneal; details: in vivo
# Mus musculus [21] = assay: Neurotoxicity in CF1 albino mouse assessed as motor impairment at 30 mg/kg, po after 4 hrs by rotarod test; type: toxicity, organism-based; design: dose 30 mg/kg, route oral; details: in vivo
# Mus musculus [22] = assay: Neurotoxicity in CF1 albino mouse assessed as ability to grasp rotarod at 300 mg/kg, ip after 0.5 hrs by rotarod test; type: toxicity, organism-based; design: dose 300 mg/kg, route intraperitoneal; details: in vivo
# Mus musculus [23] = assay: Anticonvulsant activity in CF1 albino mouse assessed as protection against maximal electroshock-induced seizures at 30 mg/kg, po after 0.25 hrs; type: functional
# Mus musculus [24] = assay: Anticonvulsant activity in CF1 albino mouse assessed as protection against maximal electroshock-induced seizures at 30 mg/kg, po after 4 hrs; type: functional
# Mus musculus [25] = assay: Anticonvulsant activity in CF1 albino mouse assessed as protection against maximal electroshock-induced seizures at 30 mg/kg, ip after 0.5 hrs; type: functional
# Rattus norvegicus [26] = organism: Rattus norvegicus; assay: Protective index, ratio of TD50 for neurotoxicity in rat to ED50 for inhibition of maximal electroshock-induced seizures in rat; type: functional
# [27] = Neurotoxicity in ip dosed CF1 albino mouse assessed as ability to maintain equilibrium for 1 min on […] by rotarod test; type: toxicity, organism-based; details: in vivo
# Rattus norvegicus [28] = assay: Anticonvulsant activity against maximal electroshock-induced seizures in po dosed rat assessed as time to peak effect; type: functional
# Mus musculus [29] = assay: Neurotoxicity in ip dosed CF1 albino mouse assessed as ability to maintain equilibrium for 1 min on […] after 4 hrs by rotarod test; type: toxicity, organism-based; details: in vivo
# Mus musculus [30] = assay: Anticonvulsant activity in ip dosed CF1 albino mouse assessed as inhibition of subcutaneous pentylenetetrazole-induced seizures; type: functional
# [31] = Neurotoxicity in po dosed rat assessed as ability to maintain equilibrium for 1 min on […] by rotarod test; type: toxicity, organism-based; details: in vivo
# Mus musculus [32] = assay: Anticonvulsant activity against maximal electroshock-induced seizures in ip dosed CF1 albino mouse assessed as time to peak effect; type: functional
# Mus musculus [33] = assay: Anticonvulsant activity in ip dosed CF1 albino mouse assessed as inhibition of maximal electroshock-induced seizures; type: functional
# Rattus norvegicus [34] = assay: Anticonvulsant activity in po dosed rat assessed as inhibition of subcutaneous pentylenetetrazole-induced seizures; type: functional
# Mus musculus [35] = organism: Mus musculus; assay: Protective index, ratio of TD50 for neurotoxicity in CF1 albino mouse to ED50 for inhibition of maximal electroshock-induced seizures in CF1 albino mouse; type: functional
# Mus musculus [36] = assay: Toxicity in CF1 albino mouse assessed as myoclonic jerks at 100 mg/kg, ip after 4 hrs; type: organism-based; design: dose 100 mg/kg, route intraperitoneal; details: in vivo
# Mus musculus [37] = assay: Toxicity in CF1 albino mouse assessed as myoclonic jerks at 300 mg/kg, ip after 4 hrs; type: organism-based; design: dose 300 mg/kg, route intraperitoneal; details: in vivo
# Mus musculus [38] = assay: Neurotoxicity in CF1 albino mouse assessed as occurance of tremors at 300 mg/kg, ip after 4 hrs by rotarod test; type: toxicity, organism-based; design: dose 300 mg/kg, route intraperitoneal; details: in vivo
# Mus musculus [39] = assay: Anticonvulsant activity in CF1 albino mouse assessed as inhibition of subcutaneous pentylenetetrazole-induced seizures at 300 mg/kg, ip after 4 hrs; type: functional, organism-based; design: dose 300 mg/kg
# Mus musculus [40] = assay: Anticonvulsant activity in CF1 albino mouse assessed as inhibition of subcutaneous pentylenetetrazole-induced seizures at 100 mg/kg, ip after 4 hrs; type: functional, organism-based; design: dose 100 mg/kg
# Mus musculus [41] = assay: Neurotoxicity in CF1 albino mouse assessed as ability to maintain equilibrium for 1 min on […] at 300 mg/kg, ip after 0.5 hrs by rotarod test; type: toxicity, organism-based; design: dose 300 mg/kg, route intraperitoneal; details: in vivo
# Mus musculus [42] = assay: Anticonvulsant activity in CF1 albino mouse assessed as inhibition of maximal electroshock-induced seizures at 300 mg/kg, ip after 0.5 hrs; type: functional, organism-based; design: dose 300 mg/kg
# Mus musculus [43] = assay: Neurotoxicity in CF1 albino mouse assessed as motor impairment at 30 mg/kg, ip after 2 hrs by rotarod test; type: toxicity, organism-based; design: dose 30 mg/kg, route intraperitoneal; details: in vivo
# Mus musculus [44] = assay: Neurotoxicity in CF1 albino mouse assessed as motor impairment at 30 mg/kg, ip after 1 hr by rotarod test; type: toxicity, organism-based; design: dose 30 mg/kg, route intraperitoneal; details: in vivo
# Mus musculus [45] = assay: Neurotoxicity in CF1 albino mouse assessed as muscle spasm at 300 mg/kg, po after 0.5 hrs by rotarod test; type: toxicity, organism-based, Muscle tissue; design: dose 300 mg/kg, route oral; details: in vivo
# Mus musculus [46] = assay: Anticonvulsant activity in CF1 albino mouse assessed as inhibition of maximal electroshock-induced seizures at 300 mg/kg, ip after 4 hrs; type: functional, organism-based; design: dose 300 mg/kg
# Rattus norvegicus [47] = assay: Anticonvulsant activity in po dosed rat assessed as inhibition of maximal electroshock-induced seizures; type: functional
# Mus musculus [48] = assay: Anticonvulsant activity in ip dosed mouse assessed as inhibition of maximal electroshock-induced seizures; type: functional
Compound,Activity (Mus musculus [1]) [mg/kg],Activity (Mus musculus [3]) [mg/kg],Activity (Mus musculus [4]),Activity (Mus musculus [7]),Activity (Mus musculus [10]),Activity (Mus musculus [12]),Activity (Mus musculus [14]),Activity (Mus musculus [16]) [mg/kg],Activity (Mus musculus [18]) [%],Activity (Mus musculus [19]),Activity (Mus musculus [20]),Activity (Mus musculus [21]),Activity (Mus musculus [23]),Activity (Mus musculus [24]) [%],Activity (Mus musculus [42]),other results
Cc1ccccc1C1CC(=O)N(CN2CCN(c3cccc(C(F)(F)F)c3)CC2)C1=O (centres undefined),30,30,25%,inactive,25%,Non-toxic,50%,300,50,Non-toxic,Non-toxic,Non-toxic,inactive,50,,Activity (Mus musculus [2]; route intraperitoneal): 100%; Activity (Mus musculus [5]): Toxic; Activity (Mus musculus [6]; route intraperitoneal): 50%; Activity (Mus musculus [8]): Toxic; Activity (Mus musculus [9]; route intraperitoneal): 50%; Activity (Mus musculus [11]): Toxic; Activity (Mus musculus [13]): Toxic; Activity (Mus musculus [15]): Non-toxic; Activity (Mus musculus [17]; route intraperitoneal): 50%; Activity (Mus musculus [22]): Toxic; Activity (Mus musculus [25]; route intraperitoneal): 50%
O=C1NC(=O)C(c2ccccc2)(c2ccccc2)N1 [PHENYTOIN],30,30,,Active,,,,100,,,,,,,,Ratio TD50/ED50 (Rattus norvegicus [26]): >21.6; TD50 at 1 min [27]: 41.2 mg/kg; Time (Rattus norvegicus [28]): 2 h; Activity (Mus musculus [29]): 100 mg/kg; ED50 (Mus musculus [30]): > 500 mg/kg; TD50 at 1 min [31]: > 500 mg/kg; Time (Mus musculus [32]): 1 h; ED50 (Mus musculus [33]): 5.32 mg/kg; ED50 (Rattus norvegicus [34]): > 500 mg/kg; Ratio TD50/ED50 (Mus musculus [35]): 6.52
COc1ccccc1N1CCN(CN2C(=O)CC(c3ccccc3C(F)(F)F)C2=O)CC1 (centres undefined),300,300,,,,,,100,,,,,,,,Activity (Mus musculus [36]): Toxic; Activity (Mus musculus [29]): 100 mg/kg; Activity (Mus musculus [37]): Toxic; Activity (Mus musculus [38]): Toxic; Activity (Mus musculus [39]): Active; Activity (Mus musculus [40]): Active
Cc1ccccc1C1CC(=O)N(CCN2CCN(c3cccc(Cl)c3)CC2)C1=O (centres undefined),100,,inactive,inactive,Non-toxic,Non-toxic,Non-toxic,,25,Non-toxic,Non-toxic,Non-toxic,inactive,50,inactive,Activity (Mus musculus [2]): inactive; Activity (Mus musculus [41]): Non-toxic; Activity (Mus musculus [6]): inactive; Activity (Mus musculus [8]): Non-toxic; Activity (Mus musculus [9]): inactive; Activity (Mus musculus [11]): Non-toxic; Activity (Mus musculus [15]): Non-toxic; Activity (Mus musculus [43]): Non-toxic; Activity (Mus musculus [17]): inactive; Activity (Mus musculus [44]): Non-toxic; Activity (Mus musculus [25]): inactive
COc1ccccc1N1CCN(CCN2C(=O)CC(c3ccccc3C(F)(F)F)C2=O)CC1 (centres undefined),,,,,,,,300,,,Non-toxic,,,,inactive,Activity (Mus musculus [45]): Toxic; Activity (Mus musculus [46]): inactive; Activity (Mus musculus [22]): Toxic
O=C1CC(c2ccccc2C(F)(F)F)C(=O)N1CN1CCN(c2ccccc2)CC1 (centres undefined),30,,50%,inactive,Non-toxic,Non-toxic,Non-toxic,300,25,Non-toxic,Non-toxic,Non-toxic,25%,75,inactive,Ratio TD50/ED50 (Rattus norvegicus [26]): >24.1; Time (Rattus norvegicus [28]): 8 h; TD50 at 1 min [31]: > 500 mg/kg; ED50 (Rattus norvegicus [47]): 20.8 mg/kg; ED50 (Rattus norvegicus [34]): > 250 mg/kg
Cc1cccc(N2CCN(CCCN3C(=O)CC(c4ccccc4Cl)C3=O)CC2)c1 (centres undefined),,,,,,,,,,,,,,,,Activity (Mus musculus [48]): 120 mg/kg
O=C1CC2(CCc3ccccc3C2)C(=O)N1CCCN1CCN(c2cccc(C(F)(F)F)c2)CC1 (centres undefined),,,,,,,,,,,,,,,,"ED50 (Mus musculus [48]; Mus musculus, ip): 23 mg/kg"
